This assay has as its target Receptor tyrosine-protein kinase erbB-2 (Homo sapiens) (UniProt P04626). The experiment in a line: inhibition of HER2 tyrosine kinase activity – biochemical, Z'-LYTE FRET, direct format, recombinant human, dose response (AID 1671289). Particulars: recombinant ERBB2.

Chain of Receptor tyrosine-protein kinase erbB-2 (Homo sapiens) (P04626 whole entry, looked up): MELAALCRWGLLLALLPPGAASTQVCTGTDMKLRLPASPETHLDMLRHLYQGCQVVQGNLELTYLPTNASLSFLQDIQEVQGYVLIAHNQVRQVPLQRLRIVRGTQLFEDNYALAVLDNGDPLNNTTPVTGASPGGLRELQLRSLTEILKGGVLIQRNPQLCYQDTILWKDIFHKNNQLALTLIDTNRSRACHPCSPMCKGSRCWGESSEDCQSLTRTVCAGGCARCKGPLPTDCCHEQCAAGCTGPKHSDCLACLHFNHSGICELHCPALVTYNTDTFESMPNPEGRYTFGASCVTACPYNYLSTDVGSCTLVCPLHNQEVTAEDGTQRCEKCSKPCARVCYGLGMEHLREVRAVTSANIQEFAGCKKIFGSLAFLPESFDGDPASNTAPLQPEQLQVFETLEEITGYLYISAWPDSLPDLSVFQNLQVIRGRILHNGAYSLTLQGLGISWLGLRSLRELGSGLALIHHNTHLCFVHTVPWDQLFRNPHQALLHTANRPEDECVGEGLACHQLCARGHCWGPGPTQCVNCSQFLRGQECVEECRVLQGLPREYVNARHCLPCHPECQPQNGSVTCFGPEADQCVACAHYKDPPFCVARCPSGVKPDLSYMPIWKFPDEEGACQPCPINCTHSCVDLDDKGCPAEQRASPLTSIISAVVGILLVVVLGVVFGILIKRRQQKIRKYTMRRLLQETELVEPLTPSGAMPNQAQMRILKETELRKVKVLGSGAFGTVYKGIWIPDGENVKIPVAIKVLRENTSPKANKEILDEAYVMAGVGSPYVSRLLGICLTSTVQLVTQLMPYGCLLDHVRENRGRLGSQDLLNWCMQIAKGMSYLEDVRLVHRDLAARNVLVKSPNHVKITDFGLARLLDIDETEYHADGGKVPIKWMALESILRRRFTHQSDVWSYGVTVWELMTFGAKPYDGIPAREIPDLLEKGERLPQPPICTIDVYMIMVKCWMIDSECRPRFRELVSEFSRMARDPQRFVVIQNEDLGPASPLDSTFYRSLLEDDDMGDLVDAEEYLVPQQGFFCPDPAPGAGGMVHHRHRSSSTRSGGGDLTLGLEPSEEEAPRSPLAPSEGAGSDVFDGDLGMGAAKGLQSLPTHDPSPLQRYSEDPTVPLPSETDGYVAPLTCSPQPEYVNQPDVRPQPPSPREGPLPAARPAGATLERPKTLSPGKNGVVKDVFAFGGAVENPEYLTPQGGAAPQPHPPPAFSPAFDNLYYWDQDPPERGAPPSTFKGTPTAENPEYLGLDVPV

The term IC50 denotes the concentration that gives 50% inhibition. For the compound `COc1cc2ncnc(Nc3cccc(Cl)c3)c2cc1OC`, the IC50 is 46.5 nM.
